Legend:
[1] = molecular target: BRD4 (His-Brd4(44-477)) (Homo sapiens (Human), UniProt O60885); assay: TR-FRET in-vitro binding assay for BRD4; conditions: acetyl-histone H4 peptide
Description: (§1) TR-FRET In-Vitro Binding Assays for BRD2, BRD3, and BRD4:
(§2) All assays were performed in 384 well microtiter plates. Each assay plate contained 8-point serial dilutions for 40 test compounds, plus 16 high- and 16 low controls. Liquid handling and incubation steps were done on an Innovadyne Nanodrop Express equipped with a robotic arm (Thermo CatX, Perkin Elmer/Caliper Twister II) and an incubator (Liconic STX40, Thermo Cytomat 2C450). The assay plates were prepared by addition of 50 nl per well of compound solution in 90% DMSO HummingBird nanodispenser (Zinsser Analytic). The assay was started by stepwise addition of 4.5 μl per well of bromo domain protein (50 mM HEPES, pH 7.5, 0.005% Tween20, 0.1% BSA, 50 mM NaCl, 45 nM His-Brd2(60-472) or 45 nM His-Brd3(20-477) or 45 nM His-Brd4(44-477) all proteins produced in-house) and 4.5 μl per well of peptide solution (50 mM HEPES, pH 7.5, 0.005% Tween20, 0.1% BSA, 50 mM NaCl, 60 nM acetyl-histone H4 (AcK 5, 8, 12, 16) (Biosyntan GmbH)). Reactions were incubated at 30° C. for 35 minutes. […] After 35 minutes incubation at 30° C., plates were measured in a Perkin Elmer EnVision multilabel reader. Concentrations causing 50% inhibition (IC50 values) were determined from percent inhibition values at different compound concentrations by non-linear regression analysis.
(§3) Preparation of Compound Dilutions
(§4) Test compounds were dissolved in DMSO (10 mM) and transferred into 1.4 mL flat bottom or V-shaped Matrix tubes carrying a unique 2D matrix. The stock solutions were stored at […] if not used immediately. For the test procedure the vials were defrosted and identified by a scanner whereby a working sheet was generated that guided the subsequent working steps. Compound dilutions were made in 96 well plates. This format enabled the assay of maximally 40 individual test compounds at 8 concentrations (single points) including 4 reference compounds, if desired (known BET inhibitors from the prior art, for this and other assays of the type disclosed herein). The dilution protocol included the production of “pre-dilution plates”, “master plates” and “assay plates”.
(§5) Pre-dilution plates: 96 polypropylene well plates were used as pre-dilution plates. A total of 4 pre-dilution plates were prepared including 10 test compounds each on the plate positions A1-A10, one standard compound at A11 and one DMSO control at A12. All dilution steps were done on a HamiltonSTAR robot.
(§6) Master plates: 30 μL of individual compound dilutions including standard compound and controls of the 4 “pre-dilution plates” were transferred into a 384 “master plate” including the following concentrations 10000, 3003, 1000, 300, 100, 30, 10 and 3 μM, respectively in 90% of DMSO.
(§7) Assay plates: Identical “assay plates” were then prepared by pipetting 50 nL each of compound dilutions of the “master plates” into 384-well “assay plates” by means of a HummingBird 384-channel dispenser. These plates were used directly for the assay which was performed in a total volume of 13.55 μL. This led to a final compound concentration of 37, 11, 3.7, 1.1, 0.37, 0.11, 0.037 and 0.011 μM and a final DMSO concentration of 0.37% in the assay.

[2] = molecular target: BRD2 (His-Brd2(60-472)) (Homo sapiens (Human), UniProt P25440); assay: TR-FRET in-vitro binding assay for BRD2; conditions: acetyl-histone H4 peptide
Sequence of BRD2 (His-Brd2(60-472)) (P25440 60-472): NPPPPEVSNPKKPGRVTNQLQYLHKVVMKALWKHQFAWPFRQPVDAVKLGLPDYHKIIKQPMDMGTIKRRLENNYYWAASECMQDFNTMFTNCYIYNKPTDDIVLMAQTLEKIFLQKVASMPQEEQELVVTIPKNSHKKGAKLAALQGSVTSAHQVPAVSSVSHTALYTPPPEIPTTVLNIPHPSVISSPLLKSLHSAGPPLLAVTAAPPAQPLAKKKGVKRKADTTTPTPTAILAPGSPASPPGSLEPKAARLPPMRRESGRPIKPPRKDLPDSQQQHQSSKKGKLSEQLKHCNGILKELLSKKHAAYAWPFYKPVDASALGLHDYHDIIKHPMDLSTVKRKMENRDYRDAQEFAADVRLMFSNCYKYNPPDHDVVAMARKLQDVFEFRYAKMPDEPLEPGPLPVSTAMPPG
Description: as §1, §2, §3, §4, §5, §6, §7

[3] = molecular target: BRD3 (His-Brd3(20-477)) (Homo sapiens (Human), UniProt Q15059); assay: TR-FRET in-vitro binding assay for BRD3; conditions: acetyl-histone H4 peptide
Sequence of BRD3 (His-Brd3(20-477)) (Q15059 20-477): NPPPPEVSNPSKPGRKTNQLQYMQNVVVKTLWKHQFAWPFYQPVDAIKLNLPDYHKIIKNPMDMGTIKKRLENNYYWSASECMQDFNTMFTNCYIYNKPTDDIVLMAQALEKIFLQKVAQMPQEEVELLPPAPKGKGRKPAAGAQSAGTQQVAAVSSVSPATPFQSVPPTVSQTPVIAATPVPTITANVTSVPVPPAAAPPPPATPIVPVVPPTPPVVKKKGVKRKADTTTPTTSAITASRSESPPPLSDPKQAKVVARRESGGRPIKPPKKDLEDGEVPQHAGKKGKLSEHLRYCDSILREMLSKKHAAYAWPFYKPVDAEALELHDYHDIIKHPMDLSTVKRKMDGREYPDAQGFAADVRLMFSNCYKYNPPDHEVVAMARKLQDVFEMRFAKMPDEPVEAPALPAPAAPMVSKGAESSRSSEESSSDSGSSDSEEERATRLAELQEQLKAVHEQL
Description: as §1
All assays were performed in 384 well microtiter plates. Each assay plate contained 8-point serial dilutions for 40 test compounds, plus 16 high- and 16 low controls. Liquid handling and incubation steps were done on an Innovadyne Nanodrop Express equipped with a robotic arm (Thermo CatX, Perkin Elmer/Caliper Twister II) and an incubator (Liconic STX40, Thermo Cytomat 2C450). The assay plates were prepared by addition of 50 nl per well of compound solution in 90% DMSO HummingBird nanodispenser (Zinsser Analytic). […] Reactions were incubated at 30° C. for 35 minutes. […] After 35 minutes incubation at 30° C., plates were measured in a Perkin Elmer EnVision multilabel reader.
as §3, §4, §5
(§8) These plates were used directly for the assay which was performed in a total volume of 13.55 μL.

[4] = molecular target: CREBBP bromodomain (His-CREBBP(1081-1197)) (Homo sapiens (Human), UniProt Q92793); assay: AlphaScreen in-vitro binding assay for CREBBP; conditions: AlphaScreen, acetyl-histone H4 peptide; read-out: CREBBP IC50
Sequence of CREBBP bromodomain (His-CREBBP(1081-1197)) (Q92793 1081-1197): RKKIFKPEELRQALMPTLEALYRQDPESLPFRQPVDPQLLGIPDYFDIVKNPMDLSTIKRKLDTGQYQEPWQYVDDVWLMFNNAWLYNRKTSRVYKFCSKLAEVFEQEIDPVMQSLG
Description: AlphaScreen In-Vitro Binding Assay for CREBBP
In order to assess bromodomain selectivity, we set up a binding assay using the bromodomain encoded by the CREBBP gene. […] Reactions were incubated at 30° C. for 35 minutes. Subsequently 4.5 μl per well detection mix (50 mM HEPES, pH 7.5, 0.005% Tween20, 0.02% BSA, 150 mM NaCl, 45 μg/ml Ni-chelate acceptor beads, 45 μg/ml streptavidin-donor beads) (Perkin Elmer)) were added. After 60 minutes incubation at room temperature, plates were measured in a Perkin Elmer EnVision multilabel reader. IC50 values were determined from percent inhibition values at different compound concentrations by non-linear regression analysis.
as §3, §4, §5, §8

[5] = tested on: MV-4-11 cells; assay: Cell growth inhibition assay (CellTiter-Glo), MV-4-11; type: cell-based, human; conditions: MV-4-11, 4 days; for GI50: Homo sapiens, MV4-11, 96 h, half-maximal growth inhibition; for MV-4-11 TGI: total growth inhibition
Description: (§9) Cell Growth Inhibition Assay
(§10) The human leukemia cell lines MV-4-11, THP-1 and K-562 were employed to characterize the effect of BET inhibitors on cellular proliferation and viability. Cells were obtained from the American Type Culture Collection (ATCC) and cultured at 37° C. in a humidified 5% CO2 incubator in the following media: MV-4-11: DMEM high glucose (Animed #1-26F01-I), 10% FCS (Animed #2-01F26-I), 4 mM L-Glutamine (Animed #5-10K50), 1 mM Sodium Pyruvate (Animed #G03625P), lx Penicillin-Streptomycin (Animed #F12478P); K-562: Iscove's MEM (Animed #1-28F16-I), 10% FCS (Animed #2-01F26-I), 4 mM L-Glutamine (Animed #5-10K50), 1× Penicillin-Streptomycin (Animed #F12478P); THP-1: RPMI-1640 (Animed #1-41F01-I), 10% FCS (Animed #2-01F26-I), 2 mM L-Glutamine (Animed #5-10K50), 10 mM HEPES (Animed #5-31F100), 1 mM Sodium Pyruvate (Animed #G03625P), 1× Penicillin-Streptomycin (Animed #F12478P). The AML lines MV-4-11 and THP-1 are very sensitive to BET inhibitors and show massive cell death upon BET inhibition (Zuber et al., Nature, 478 (2011), 524-8). Compound-mediated suppression of cell proliferation/viability was assessed by quantification of cellular ATP levels using the CellTiter-Glo (CTG) reagent (Promega). Briefly, cells were seeded in 20 μl fresh medium into 384-well plates, followed by addition of 5 μl medium containing compound dilutions at 5-fold their final intended concentration. Dose-response effects were assessed by 3-fold serial dilutions of the test compound, starting at 10 μM. Following incubation of the cells for 4 days at 37° C. and 5% CO2, the effect of inhibitors on cell viability was quantified following addition of 20 μl CTG and luminescence quantification (integration time: 100 ms) as per vendor manual, using a correspondingly equipped Tecan M200 multi-mode platereader (TECAN, Switzerland). For data analysis, the assay background value determined in wells containing medium, but no cells, was subtracted from all data points. To enable differentiation of cytotoxic from cytostatic compounds, the number of viable cells is assessed relative to that observed at the time of compound addition using a separate cell plate (day 0). The effect of a particular test compound concentration on cell proliferation/viability is expressed as percentage of the background- and day 0-corrected luminescence reading obtained for cells treated with vehicle only (DMSO, 0.1% final concentration), which is set as 100%, whereas that luminescence reading for wells containing medium is set as −100%. Compound concentrations leading to half-maximal (IC50) and total growth inhibition (TGI) were determined using standard four parameter curve fitting.

[6] = tested on: THP-1 cells; assay: Cell growth inhibition assay (CellTiter-Glo), THP-1; type: cell-based, human; conditions: THP-1, 4 days; for GI50: Homo sapiens, 96 h, half-maximal growth inhibition; for THP-1 TGI: total growth inhibition
Description: as §9, §10

[7] = tested on: K-562 cells; assay: Cell growth inhibition assay (CellTiter-Glo), K-562; type: cell-based, human; conditions: K-562, 4 days; for GI50: Homo sapiens, K562, 96 h, half-maximal growth inhibition; for K-562 TGI: total growth inhibition
Description: as §9, §10

Row | SMILES | IC50 [1] [nM] | IC50 [2] [nM] | IC50 [3] [nM] | IC50 [4] [nM] | GI50 [5] [nM] | MV-4-11 TGI [5] [nM] | GI50 [6] [nM] | THP-1 TGI [6] [nM] | GI50 [7] [nM] | K-562 TGI [7] [nM]
1 | Cc1cc(N2C(=O)c3c(C4CC4)nn(-c4ccnn4C)c3C2c2ccc(Cl)cc2)nn2c(C)nnc12 (stereo not drawn) [Example 25, 6-(4-chlorophenyl)-3-cyclopropyl-5-(3,8-dimethyl-[1,2,4]triazolo[4,3-b]pyridazin-6-yl)-1-(1-methyl-1H-pyrazol-5-yl)-5,6-dihydropyrrolo[3,4-c]pyrazol-4(1H)-one] | 25 | 32 | 24 | > 37000 | 6.65 | 15.9 | 20.1 | 44.4 | 91.6 | >10000
2 | COc1cc(N2C(=O)c3c(C4CC4)nn(C)c3C2c2ccc(Cl)cc2)cn2c(C(F)F)nnc12 (stereo not drawn) [Example 22, 6-(4-chlorophenyl)-3-cyclopropyl-5-(3-(difluoromethyl)-8-methoxy-[1,2,4]triazolo-[4,3-a]pyridin-6-yl)-1-methyl-5,6-dihydropyrrolo[3,4-c]pyrazol-4(1H)-one] | 130 | 210 | 230 | > 37000 | 266 | 574 | 814 | 1330 | 1180 | >10000
3 | COc1ncccc1-c1nn(C)c2c1C(=O)N(c1cc(C)c3nnc(C)n3c1)C2c1ccc(Cl)cc1 (racemic) [Example 12, 6-(4-chlorophenyl)-5-(3,8-dimethyl-[1,2,4]triazolo[4,3-a]pyridin-6-yl)-3-(2-methoxypyridin-3-yl)-1-methyl-5,6-dihydropyrrolo[3,4-c]pyrazol-4(1H)-one] | 32 | 42 | 31 | 12200 | 17.5 | 37.8 | 40.5 | 97.35 | 106 | >10000
4 | Cc1nnc2c(N)cc(N3C(=O)c4c(C5CC5)nn(C)c4C3c3ccc(Cl)cc3)cn12 (stereo not drawn) [Example 28, 5-(8-amino-3-methyl-[1,2,4]triazolo[4,3-a]pyridin-6-yl)-6-(4-chlorophenyl)-3-cyclopropyl-1-methyl-5,6-dihydropyrrolo[3,4-c]pyrazol-4(1H)-one] | 21 | 41 | 34 | 3700 | 1.56 | 3.515 | 2.83 | 9.04 | 9.66 | >10000
5 | COc1ncccc1-c1n[nH]c2c1C(=O)N(c1cc(C)c3nnc(C)n3c1)[C@@H]2c1ccc(Cl)cc1 [Example 11, (R)-6-(4-chlorophenyl)-5-(3,8-dimethyl-[1,2,4]triazolo[4,3-a]pyridin-6-yl)-3-(2-methoxypyridin-3-yl)-5,6-dihydropyrrolo[3,4-c]pyrazol-4(1H)-one] | 42 | 46 | 37 | > 37000 | 9.55 | 17.4 | 28.2 | 42.8 | 98.4 | >10000
6 | COc1cc(N2C(=O)c3c(C4CC4)nn(C)c3[C@H]2c2ccc(Cl)cc2)cn2c(C)nnc12 [Example 14, (R)-6-(4-chlorophenyl)-3-cyclopropyl-5-(8-methoxy-3-methyl-[1,2,4]triazolo[4,3-a]-pyridin-6-yl)-1-methyl-5,6-dihydropyrrolo[3,4-c]pyrazol-4(1H)-one] | 30 | 57 | 55 | 27500 | 20.1 | 39.55 | 51.4 | 118.5 | 152 | >10000

Reference: patent US9624247B2, “Pyrazolo-pyrrolidin-4-one derivatives as bet inhibitors and their use in the treatment of disease” (NOVARTIS AG, priority 2013, dated 2017)
